Assay results reported in US10974293B2, “Device for phyto-ecological monitoring” (priority 2014, dated 2021).
Like-named read-outs stand apart in the source and are kept apart here.

System: lettuce
Type: in vivo, Lactuca vulgaris
Conditions: arsenic in water 0 to 100 ppm
Text: The arbuscular mycorrhizal spore germination and growth assay (a) consists of a glass slide (22) with a strip of blotter paper (25) of the same width as the glass slide overlain upon it. A semi-circle of gridded, nitrocellulose filter paper is laid on top of the blooter paper. Fungal spores are then placed into one or more segments of the grid, and then covered with a cover slip (not shown). The entire assembly is then held together using non-toxic retainer rings, or alternatively glued together with a non-toxic glue. When the glass slide assay is placed into the slider cartridge (21, FIG. 5) and then into the device of current invention, and deployed in the field and exposed to moisture, the spores produce hyphae, which can be quantitatively observed using optical microscope. The degree of branching of hyphae can be used as outcome of the assay and correlated with contaminants present in the soil and/or water. The small seed germination assay (b) (FIG. 6) also contains a glass slide with two layers of fitted blotter paper strips (25): first layer of fitied blotter paper is the strip without holes, and a second blotter paper strip which has holes of about 2-3 mm in diameter as shown in FIG. 6. Plant seeds (26) are placed in one or more holes, and the assembly is then covered with a standard laboratory cover slip and held together by a non-toxic retaining ring or a glue. […]

How did the “root growth response to arsenic exposure” value (horizontally grown seedlings) turn out when `[AsH3]` [arsenic] was run?
Its value is “not evident”.

What about the “root growth response to arsenic exposure” value (vertically oriented seedlings) of the same molecule?
The value was “hermetic response (enhanced growth at low concentrations of a toxicant)”.
